Experimental findings from paper PMC8880098, “Synthesis, Antibacterial Evaluation, and Computational Studies of a Diverse Set of Linezolid Conjugates” (Pharmaceuticals, 2022) are described below.

The subject of experiment [1] is Escherichia coli ATCC 47076. In words: Antibacterial MIC, microdilution susceptibility test (CLSI). In kind it is cell-based. An excerpt:
(§1) The synthesized linezolid conjugates (3a–k, 5a–f, 7a–c, 9a–c, 11a–f, 13, and 15) were subjected for antimicrobial properties determination against Gram-positive (Staphylococcus aureus ATCC 6538, Bacillus subtilis ATCC 6633) and Gram-negative (Pseudomonas aeruginosa ATCC 15692, Escherichia coli ATCC 47076) bacteria by the standard technique.
(§2) Antibacterial properties of the synthesized compounds (3a–k, 5a–f, 7a–c, 9a–c, 11a–f, 13 and 15) were screened against Gram-positive (Staphylococcus aureus ATCC 6538, Bacillus subtilis ATCC 6633) and Gram-negative (Pseudomonas aeruginosa ATCC 15,692 and Escherichia coli ATCC 47076) bacteria utilizing the standard technique. Linezolid was used as a standard reference/drug in the current study. The tested bacterial strains were obtained from MERCIN Center, Faculty of Agriculture, Ain Shams University, Cairo, Egypt.
(§3) To determine the antibacterial activity, stock solutions of the tested compounds and standard reference were prepared with up to 100% DMSO and stored at […]. If necessary, the solutions were heated to 40–60 °C before testing to facilitate complete dissolution. Double distilled water was used in all dilutions prepared. […] A microdilution susceptibility test was used for MIC determination (Mueller–Hinton broth in 96-well plates) according to the CLSI (the Clinical and Laboratory Standards Institute, Malvern, PA, USA). The bacterial inoculum was adjusted to approximately 2.5–3 × 10^4 cells/mL in Mueller–Hinton broth and incubated in a ratio of 1:1 with the test derivatives in polystyrene 96-well flat-bottom microplates. Positive growth control (without test derivatives) and negative control (without bacteria) were included. The microplates were placed in an incubator set to 37 °C for 24 h. Absorbance was measured at 620 nm at the end of the incubation period. The cut-off level for follow-up studies was defined as a minimum of 90% inhibition of growth compared to the untreated sample. Experiments were conducted once in triplicate. For selected compounds, minimum inhibitory concentration (MIC) values were determined by dose–response experiments. Experiments were performed at least twice, in triplicate per concentration tested.
(Broth dilution looks for growth in wells or tubes with falling amounts of substance.)

In experiment [2] the test system is Bacillus subtilis ATCC 6633. The description is as above. In kind it is cell-based.
Description: as §1, §2, §3

The subject of experiment [3] is Staphylococcus aureus ATCC 6538. Described as above. In kind it is cell-based.
Description: as §1, §2, §3

Experiment [4] concerns Pseudomonas aeruginosa ATCC 15692. The description is as above. The class given is cell-based.
Description: as §1, §2, §3

The subject of experiment [5] is Bacillus subtilis ATCC 6633. Briefly: microbe, parasite or virus in culture. As to conditions: ATCC6633, 24 h, read-out: Observed MIC, uM (B. subtilis). Also on record: species or system bacteria; Broth microdilution MIC in Mueller-Hinton broth, absorbance at 620 nm.
Description: as §3, with “Antibacterial properties of the synthesized compounds (3a–k, 5a–f, 7a–c, 9a–c, 11a–f, 13 and 15) were screened against Gram-positive (Staphylococcus aureus ATCC 6538, Bacillus subtilis ATCC 6633) and Gram-negative (Pseudomonas aeruginosa ATCC 15,692 and Escherichia coli ATCC 47076) bacteria utilizing the standard technique. Linezolid was used as a standard reference/drug in the current study. The tested bacterial strains were obtained from MERCIN Center, Faculty of Agriculture, Ain Shams University, Cairo, Egypt. To” for “To”

Experiment [6] deals with Staphylococcus aureus ATCC 6538. In words: microbe, parasite or virus in culture. Also on record: species or system bacteria; Broth microdilution MIC in Mueller-Hinton broth, absorbance at 620 nm. As to conditions: ATCC6538, 24 h, read-out: Observed MIC, uM (S. aureus).
Description: as §3, with “Antibacterial properties of the synthesized compounds (3a–k, 5a–f, 7a–c, 9a–c, 11a–f, 13 and 15) were screened against Gram-positive (Staphylococcus aureus ATCC 6538, Bacillus subtilis ATCC 6633) and Gram-negative (Pseudomonas aeruginosa ATCC 15,692 and Escherichia coli ATCC 47076) bacteria utilizing the standard technique. Linezolid was used as a standard reference/drug in the current study. The tested bacterial strains were obtained from MERCIN Center, Faculty of Agriculture, Ain Shams University, Cairo, Egypt. To” for “To”

The mark [7] stands for this setting: ATCC47076, Mueller–Hinton broth, 37 °C, 24 h, read-out: MIC, μg/mL ± SE, E. Coli (ATCC 47076).
Setting [8] is: ATCC47076, value in parentheses, read-out: MIC (μmol), E. Coli (ATCC 47076) (converted).
The mark [9] stands for this setting: Bacillus subtilis, ATCC6633, 24 h, Mueller–Hinton broth, 37 °C, 24 h, read-out: MIC, μg/mL ± SE, B. Subtilis (ATCC 6633).
Setting [10] is: Staphylococcus aureus, ATCC6538, 24 h, Mueller–Hinton broth, 37 °C, 24 h, read-out: MIC, μg/mL ± SE, S. Aureus (ATCC 6538).
The mark [11] stands for this setting: ATCC15692, Mueller–Hinton broth, 37 °C, 24 h, read-out: MIC, μg/mL ± SE, P. Aeruginosa (ATCC 15692).
The mark [12] stands for this setting: ATCC15692, value in parentheses, read-out: MIC (μmol), P. Aeruginosa (ATCC 15692) (converted).
The mark [13] stands for this setting: Bacillus subtilis, ATCC6633, as quoted in running text, read-out: MIC against B. subtilis.
Where [14] appears, read: Bacillus subtilis, ATCC6633, value in parentheses, read-out: MIC (μmol), B. Subtilis (ATCC 6633) (converted).
Setting [15] is: Staphylococcus aureus, ATCC6538, as quoted in running text, read-out: MIC against S. aureus.
The mark [16] stands for this setting: Staphylococcus aureus, ATCC6538, value in parentheses, read-out: MIC (μmol), S. Aureus (ATCC 6538) (converted).

Converted amounts (≈) assume the structure as drawn. Where two headings read alike, the source gives them in different places.

Consider `O=C(CNC(=O)OCc1ccccc1)NC[C@H]1CN(c2ccc(N3CCOCC3)c(F)c2)C(=O)O1` [Compound 3a, Benzyl (S)-(2-(((3-(3-fluoro-4-morpholinophenyl)-2-oxooxazolidin-5-yl)methyl)amino)-2-oxoethyl)carbamate], for which the MIC in experiment [1] (setting [7]) is 32 ± 1 µg/mL; in experiment [1] (setting [8]) it was 65.8 µM; in experiment [2] (setting [9]), 4 ± 0.3 µg/mL; in experiment [3] (setting [10]), 16 ± 2.1 µg/mL; in experiment [4] (setting [11]) it was 64 ± 1.4 µg/mL; in experiment [4] (setting [12]), 132 µM. For the same molecule, the figures for the MIC in experiment [5] and in experiment [6] were 8.22 µM (≈ 4 µg/mL) and 32.9 µM (≈ 16 µg/mL), respectively.
Consider `C[C@H](NC(=O)OCc1ccccc1)C(=O)NC[C@H]1CN(c2ccc(N3CCOCC3)c(F)c2)C(=O)O1` [Compound 3b, Benzyl ((S)-1-((((S)-3-(3-fluoro-4-morpholinophenyl)-2-oxooxazolidin-5-yl)methyl)amino)-1-oxopropan-2-yl)carbamate], for which the MIC in experiment [1] (setting [7]) was 32 ± 2.5 µg/mL; in experiment [1] (setting [8]), 63.9 µM; in experiment [2] (setting [9]), 32 ± 2.1 µg/mL; in experiment [3] (setting [10]), 32 ± 1.5 µg/mL; in experiment [4] (setting [11]), 64 ± 1.9 µg/mL; in experiment [4] (setting [12]), 128 µM. Further, the MIC in experiment [5] and in experiment [6] was 63.9 µM (≈ 32 µg/mL) throughout.
Consider `CC(C)[C@H](NC(=O)OCc1ccccc1)C(=O)NC[C@H]1CN(c2ccc(N3CCOCC3)c(F)c2)C(=O)O1` [Compound 3c, Benzyl ((S)-1-((((S)-3-(3-fluoro-4-morpholinophenyl)-2-oxooxazolidin-5-yl)methyl)amino)-3-methyl-1-oxobutan-2-yl)carbamate], for which the MIC in experiment [1] (setting [7]) is 32 ± 1.6 µg/mL; in experiment [1] (setting [8]) it was 60.5 µM; in experiment [2] (setting [9]) it was 32 ± 2.7 µg/mL; in experiment [3] (setting [10]), 32 ± 1.1 µg/mL; in experiment [4] (setting [11]) it was 64 ± 2.9 µg/mL; in experiment [4] (setting [12]), 121 µM. The MIC in experiment [5] and in experiment [6] was 60.5 µM (≈ 32 µg/mL) each time.
Turning to `CSCC[C@H](NC(=O)OCc1ccccc1)C(=O)NC[C@H]1CN(c2ccc(N3CCOCC3)c(F)c2)C(=O)O1` [Compound 3d, Benzyl ((S)-1-((((S)-3-(3-fluoro-4-morpholinophenyl)-2-oxooxazolidin-5-yl)methyl)amino)-4-(methylthio)-1-oxobutan-2-yl)carbamate], the MIC is 32 ± 2 µg/mL in experiment [1] (setting [7]); 57.1 µM in experiment [1] (setting [8]); 32 ± 1.6 µg/mL in experiment [3] (setting [10]); 64 ± 3.1 µg/mL in experiment [4] (setting [11]); 114 µM in experiment [4] (setting [12]); 57.1 µM (≈ 32 µg/mL) in experiment [5]. Moreover, the MIC in experiment [6] came out at 57.1 µM (≈ 32 µg/mL).
With `CC(C)[C@H](NC(=O)OC(C)(C)C)C(=O)NC[C@H]1CN(c2ccc(N3CCOCC3)c(F)c2)C(=O)O1` [Compound 3h, Tert-butyl ((S)-1-((((S)-3-(3-fluoro-4-morpholinophenyl)-2-oxooxazolidin-5-yl)methyl)amino)-3-methyl-1-oxobutan-2-yl)carbamate], the MIC is 32 ± 1.1 µg/mL in experiment [1] (setting [7]); 64.7 µM in experiment [1] (setting [8]); 32 ± 0.7 µg/mL in experiment [2] (setting [9]); 32 ± 1.3 µg/mL in experiment [3] (setting [10]); 32 ± 0.5 µg/mL in experiment [4] (setting [11]); 64.7 µM in experiment [4] (setting [12]). Moreover, the MIC in experiment [5] and in experiment [6] was 64.7 µM (≈ 32 µg/mL) each time.
As to `CSCC[C@H](NC(=O)OC(C)(C)C)C(=O)NC[C@H]1CN(c2ccc(N3CCOCC3)c(F)c2)C(=O)O1` [Compound 3i, Tert-butyl ((S)-1-((((S)-3-(3-fluoro-4-morpholinophenyl)-2-oxooxazolidin-5-yl)methyl)amino)-4-(methylthio)-1-oxobutan-2-yl)carbamate], the MIC in experiment [1] (setting [7]) is 32 ± 0.5 µg/mL; in experiment [1] (setting [8]), 60.8 µM; in experiment [2] (setting [9]), 32 ± 1.4 µg/mL; in experiment [3] (setting [10]), 32 ± 2.1 µg/mL; in experiment [4] (setting [11]) it was 32 ± 0.8 µg/mL; in experiment [4] (setting [12]), 60.8 µM. For the same molecule, the MIC in experiment [5] and in experiment [6] was 60.8 µM (≈ 32 µg/mL) in each case.
`O=C(NC[C@H]1CN(c2ccc(N3CCOCC3)c(F)c2)C(=O)O1)c1ccc(F)cc1` [Compound 5b, (S)-4-Fluoro-N-((3-(3-fluoro-4-morpholinophenyl)-2-oxooxazolidin-5-yl)methyl) benzamide]: the MIC was 32 ± 2.4 µg/mL in experiment [1] (setting [7]); 76.7 µM in experiment [1] (setting [8]); 1 ± 0.1 µg/mL in experiment [2] (setting [9]); 2.33 to 2.5 µM in experiment [2] (setting [13]); 2.4 µM in experiment [2] (setting [14]); 2.396 µM in experiment [2] (read-out: MIC against B. subtilis). Also, the MIC in experiment [3] (setting [10]) was 4 ± 0.1 µg/mL; in experiment [3] (setting [15]) it was 9.34 to 10 µM; in experiment [3] (setting [16]), 9.58 µM; in experiment [3] (read-out: MIC against S. aureus), 9.583 µM; in experiment [4] (setting [11]), 32 ± 1.2 µg/mL; in experiment [4] (setting [12]) it was 76.7 µM.
In the case of `O=C(NC[C@H]1CN(c2ccc(N3CCOCC3)c(F)c2)C(=O)O1)c1ccc(Cl)cc1` [Compound 5c, (S)-4-Chloro-N-((3-(3-fluoro-4-morpholinophenyl)-2-oxooxazolidin-5-yl)methyl) benzamide], the MIC in experiment [1] (setting [7]) was 32 ± 0.7 µg/mL; in experiment [1] (setting [8]), 73.8 µM; in experiment [2] (setting [9]), 2 ± 0.1 µg/mL; in experiment [2] (setting [13]), 4.61 to 5 µM; in experiment [2] (setting [14]), 4.61 µM; in experiment [3] (setting [10]), 8 ± 0.3 µg/mL. Moreover, the values for the MIC in experiment [4] (setting [11]), in experiment [4] (setting [12]) and in experiment [6] were 32 ± 1.9 µg/mL, 73.8 µM and 18.4 µM (≈ 8 µg/mL), respectively.
Regarding `O=C(NC[C@H]1CN(c2ccc(N3CCOCC3)c(F)c2)C(=O)O1)c1ccc([N+](=O)[O-])cc1` [Compound 5d, (S)-N-((3-(3-Fluoro-4-morpholinophenyl)-2-oxooxazolidin-5-yl)methyl)-4-nitro benzamide], the MIC in experiment [1] (setting [7]) was 32 ± 2.2 µg/mL; in experiment [1] (setting [8]) it was 72 µM; in experiment [2] (setting [9]) it was 1 ± 0.1 µg/mL; in experiment [2] (setting [13]), 2.25 µM; in experiment [2] (setting [14]), 2.25 µM; in experiment [3] (setting [10]), 2 ± 0.1 µg/mL. Moreover, the MIC in experiment [3] (setting [15]) is 4.5 µM; in experiment [3] (setting [16]) it was 4.5 µM; in experiment [4] (setting [11]), 32 ± 1.6 µg/mL; in experiment [4] (setting [12]), 72 µM.
`CC(=O)NC[C@H]1CN(c2ccc(N3CCOCC3)c(F)c2)C(=O)O1` [Linezolid]: the MIC in experiment [1] (setting [7]) is 8 ± 0.2 µg/mL; in experiment [1] (setting [8]), 23.7 µM; in experiment [2] (setting [9]) it was 0.25 ± 0.01 µg/mL; in experiment [2] (setting [14]), 0.741 µM; in experiment [3] (setting [10]) it was 2 ± 0.1 µg/mL; in experiment [3] (setting [15]) it was 5.93 µM. In addition, the MIC in experiment [3] (setting [16]) is 5.93 µM; in experiment [4] (setting [11]) it was 32 ± 0.7 µg/mL; in experiment [4] (ATCC15692, read-out: MIC against P. aeruginosa) it was 94.9 µM; in experiment [4] (setting [12]), 94.9 µM.
